From article PMC2942994 (Biochemical pharmacology, 2010)

Legend:
[1] = target: hSERT (human serotonin transporter) (Homo sapiens, UniProt P31645, M370L); assay: cell-based; set-up: species or system HEK-293, transiently transfected
hSERT V367I = hSERT V367I (Homo sapiens, UniProt P31645, V367I); assay: cell-based; set-up: species or system HEK-293, transiently transfected
Chain of hSERT V367I (P31645 whole entry V367I): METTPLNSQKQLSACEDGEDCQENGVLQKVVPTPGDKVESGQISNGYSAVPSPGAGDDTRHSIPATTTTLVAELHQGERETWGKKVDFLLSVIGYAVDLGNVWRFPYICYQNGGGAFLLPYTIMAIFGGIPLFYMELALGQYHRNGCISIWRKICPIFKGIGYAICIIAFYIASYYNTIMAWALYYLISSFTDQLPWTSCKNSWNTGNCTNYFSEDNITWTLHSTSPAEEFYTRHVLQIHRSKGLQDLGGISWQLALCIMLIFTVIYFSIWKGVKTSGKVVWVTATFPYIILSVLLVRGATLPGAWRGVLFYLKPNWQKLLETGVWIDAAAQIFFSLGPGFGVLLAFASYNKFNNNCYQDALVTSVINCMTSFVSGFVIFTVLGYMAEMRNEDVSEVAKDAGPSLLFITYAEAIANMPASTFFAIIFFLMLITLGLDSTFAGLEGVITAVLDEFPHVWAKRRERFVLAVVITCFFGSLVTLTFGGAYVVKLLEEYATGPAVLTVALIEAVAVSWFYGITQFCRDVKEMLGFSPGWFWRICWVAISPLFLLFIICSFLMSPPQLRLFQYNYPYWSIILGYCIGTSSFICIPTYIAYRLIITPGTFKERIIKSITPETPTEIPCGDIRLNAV

Chain of hSERT (human serotonin transporter) (P31645 whole entry M370L): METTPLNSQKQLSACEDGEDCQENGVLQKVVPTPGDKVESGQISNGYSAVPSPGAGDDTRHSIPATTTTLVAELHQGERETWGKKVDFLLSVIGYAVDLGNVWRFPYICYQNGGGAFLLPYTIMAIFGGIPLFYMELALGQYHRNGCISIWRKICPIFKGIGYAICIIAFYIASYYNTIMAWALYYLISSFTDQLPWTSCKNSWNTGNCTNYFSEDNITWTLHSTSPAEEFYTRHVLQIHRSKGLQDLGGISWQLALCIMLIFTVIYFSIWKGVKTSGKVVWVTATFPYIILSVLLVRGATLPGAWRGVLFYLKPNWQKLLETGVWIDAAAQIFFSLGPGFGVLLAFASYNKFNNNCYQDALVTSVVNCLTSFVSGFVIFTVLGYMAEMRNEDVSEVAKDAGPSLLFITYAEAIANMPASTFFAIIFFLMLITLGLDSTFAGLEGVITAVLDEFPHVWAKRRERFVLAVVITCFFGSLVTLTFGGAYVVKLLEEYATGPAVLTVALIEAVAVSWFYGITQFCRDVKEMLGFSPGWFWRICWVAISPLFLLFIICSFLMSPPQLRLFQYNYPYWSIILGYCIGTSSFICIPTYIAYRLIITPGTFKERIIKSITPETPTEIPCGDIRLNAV

Question: With COC(=O)[C@H]1[C@@H](c2ccc(I)cc2)C[C@@H]2CC[C@H]1N2C [RTI-55] as the compound, how does the Ki [1] read?
Answer: 16 ± 2 nM

Question: And the Ki (hSERT V367I)?
Answer: 16 ± 6 nM
